Measured values from patent US12630528B2, “Amino aryl derivative useful as diacylglycerol acyltransferase 2 inhibitor and use thereof” (LG CHEM, LTD., priority 2019, dated 2026).

Molecular target: T1, human DGAT2 (Homo sapiens, UniProt Q96PD7)
T1 construct: FLAG (DYKDDDDK); made in house; host or cells: Sf-21 insect cells (BacPAK baculovirus system); membrane fraction used
T1 sequence (Q96PD7 1-388): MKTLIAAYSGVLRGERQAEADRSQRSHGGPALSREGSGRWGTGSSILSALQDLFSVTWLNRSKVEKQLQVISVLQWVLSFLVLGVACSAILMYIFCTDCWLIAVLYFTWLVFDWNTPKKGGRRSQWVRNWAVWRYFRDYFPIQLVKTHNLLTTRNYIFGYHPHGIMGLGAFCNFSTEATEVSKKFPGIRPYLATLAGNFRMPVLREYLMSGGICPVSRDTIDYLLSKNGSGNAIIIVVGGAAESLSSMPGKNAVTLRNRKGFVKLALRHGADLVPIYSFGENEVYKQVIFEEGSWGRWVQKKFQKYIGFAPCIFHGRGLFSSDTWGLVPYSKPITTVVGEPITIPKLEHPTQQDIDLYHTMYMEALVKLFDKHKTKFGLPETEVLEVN
Experiment: DGAT2 enzyme activity inhibition, Phospholipid FlashPlate SPA
Type: biochemical
Conditions: recombinant human DGAT2 membrane protein from Sf-21 cells; inhibition of [14C]-TG production; 37° C.
Method: In order to prepare the pBacPAK9-DGAT2, which is DGAT2 expression vector, the human DGAT2 gene amplified by polymerase chain reaction (PCR) was cloned into the EcoR1 and Xho1 sites of the pBacPAK9 (clonctech) vector. The nucleotide sequence of the primers used in PCR was the forward primer 5′ […] (SEQ. ID. NO: 2). The composition of the reaction solution was to contain 50 ng of cDNA clone (OriGene), 200 μM of dATP, dCTP, dTTP, dGTP, 200 nM of each primer, 1 unit of Tag DNA Polymerase (Toyobo), 1×PCR buffer, and the final volume was adjusted to 20 μl. The reaction conditions were denatured at 95° C. for 5 minutes, followed by 30 times of 94° C. for 20 seconds, 60° C. for 20 seconds, and 72° C. for 90 seconds, followed by further reaction at 72° C. for 7 minutes.
Recombinant human DGAT2 protein was expressed in Sf-21 cells, which are insect cells, by using the BacPack baculovirus expression system (Clontech). The brief manufacturing process is as follows. First, the pBacPAK9-DGAT2 expression vector was transfected with BacPAK6 virus DNA (Bsu36I digest) into sf21 cells using Bacfectin to prepare a recombinant DGAT2 expressing baculovirus. The thus prepared baculovirus was infected with Sf-21 cells at 10 MOI (multiplicity of infection), and after 72 hours, infected insect cells were collected and membrane proteins were isolated. For membrane protein separation, the cell pellet was dissolved in a sucrose solution containing 250 mM sucrose, 10 mM Tris (pH 7.4), and 1 mM ethylenediamine-tetraacetic acid (EDTA), and then homogenized by using a dounce homogenizer, and the supernatant was taken by centrifuging at 600×g for 15 minutes, and centrifuged at 100,000×g for 1 hour to discard the supernatant, and the remaining pellet was resuspended in 20 mM HEPES buffer (pH 7.4). The prepared DGAT2 overexpressing membrane protein was dispensed in 100 μl and stored at −80° C. until use. Protein concentration was quantified by using the BCA Protein Assay Kit (Thermo Scientific).
In vitro DGAT2 analysis was performed using a Phospholipid Flash Plate (PerkinElmer) based on the principle of SPA (Scintilation Proximity Assay). First, DGAT2 inhibition compounds serially diluted 5 times from 3 nM to 10 μM (final concentration, 1% DMSO) were mixed in a buffer solution containing 2 μg DGAT2-membrane protein and 20 mM HEPES, 20 mM MgCl2, 1 mg/mL BSA, 50 μM 1,2 sn-oleoyl glycerol (Sigma), put in a 96-well flash plate (FlashPlate) and reacted at 37° C. for 20 minutes, and then 1 μM [14C] ole oil CoA (PerkinElmer, NEC651050UC) was added to be a final volume of 100 μL and further reacted at 37° C. for 15 minutes. After the enzymatic reaction was completed, 100 μL of isopropanol was added, the plate was sealed with a film, and the plate was shaken slowly in a plate shaker. The next day, the amplified scintillation signal (cpm) in Topcounter (Packard) was measured to measure the degree of production of [14C]-labeled triacyl glycerol (TG) as a reaction product. The measured value when the compound was not treated was used as a positive control, and the measured value of the compound treated group was calculated as a relative % to measure the inhibition effect of the compound on TG production.

IC50 [nM] | Molecule
730 | CCOc1ccccc1O[C@@H]1CCCN(c2cncc(Nc3cccc(N4CCC(C(=O)O)C4)n3)n2)C1 (stereo partly drawn) [Example 52, 1-(6-((6-((R)-3-(2-ethoxyphenoxy)piperidin-1-yl)pyrazin-2-yl)amino)pyridin-2-yl)pyrrolidine-3-carboxylic Acid]
490 | CCOc1cccnc1O[C@@H]1CCCN(c2cncc(Nc3cccc(Oc4ccc(CC(=O)O)cc4)n3)n2)C1 [Example 98, (R)-2-(4-((6-((6-(3-((3-ethoxypyridin-2-yl)oxy)piperidin-1-yl)pyrazin-2-yl)amino)pyridin-2-yl)oxy)phenyl)acetic Acid]
1700 | CCOc1ccccc1O[C@@H]1CCCN(c2cncc(Nc3nccc(-c4cccc(CCC(=O)O)c4)n3)n2)C1 [Example 145, (R)-3-(3-(2-((6-(3-(2-ethoxyphenoxy)piperidin-1-yl)pyrazin-2-yl)amino)pyrimidin-4-yl)phenyl)propanoic Acid]
230 | CCOc1cccnc1O[C@@H]1CCCN(c2cncc(Nc3nccc(-c4ccc(C(C)(C)C(=O)O)cc4)n3)n2)C1 [Example 144, (R)-2-(4-(2-((6-(3-((3-ethoxypyridin-2-yl)oxy)piperidin-1-yl)pyrazin-2-yl)amino)pyrimidin-4-yl)phenyl)-2-methylpropanoic Acid]
1900 | CCOc1ccccc1O[C@@H]1CCCN(c2cncc(Nc3cccc(CC(C)(C)C(=O)O)n3)n2)C1 [Example 51, (R)-3-(6-((6-(3-(2-ethoxyphenoxy)piperidin-1-yl)pyrazin-2-yl)amino)pyridin-2-yl)-2,2-dimethylpropanoic Acid]
> 10000 | (R)-2-(4-((6-(3-(2-ethoxyphenoxy)pyridin-1-yl)pyrazin-2-yl)amino)phenyl)-2-methylpropanoic Acid [Example 28]
670 | CCOc1ccccc1O[C@@H]1CCCN(c2cncc(Nc3nc(-c4cccc(CC(C)(C)C(=O)O)c4)cc(C(F)(F)F)n3)n2)C1 [Example 167, (R)-3-(3-(2-((6-(3-(2-ethoxyphenoxy)piperidin-1-yl)pyrazin-2-yl)amino)-6-(trifluoromethyl)pyrimidin-4-yl)phenyl)-2,2-dimethylpropanoic Acid]
170 | CCOc1cccnc1O[C@@H]1CCCN(c2cncc(Nc3cccc(-c4ccc(C(C)(C)C(=O)O)cc4)n3)n2)C1 [Example 62, (R)-2-(4-(6-((6-(3-((3-ethoxypyridin-2-yl)oxy)piperidin-1-yl)pyrazin-2-yl)amino)pyridin-2-yl)phenyl)-2-methylpropanoic Acid]
1700 | CCOc1ccccc1O[C@@H]1CCCN(c2cncc(Nc3ccc(-c4ccccc4)cn3)n2)C1 [Example 40, (R)-6-(3-(2-ethoxyphenoxy)piperidin-1-yl)-N-(5-phenylpyridin-2-yl)pyrazin-2-amine]
300 | CCOc1ccccc1O[C@@H]1CCCN(c2ccnc(Nc3cccc(-c4ccc(NCC(=O)O)cc4)n3)n2)C1 [Example 76]
6200 | CCOc1ccccc1O[C@@H]1CCCN(c2cncc(Nc3ncc(C(=O)O)s3)n2)C1 [Example 1, (R)-2-((6-(3-(2-ethoxyphenoxy)piperidin-1-yl)pyrazin-2-yl)amino)thiazole-5-carboxylic Acid]
480 | CCOc1ccccc1O[C@@H]1CCCN(c2cncc(Nc3ccnc(-c4cccc(OC(C)(C)C(=O)O)c4)n3)n2)C1 [Example 174, (R)-2-(3-(4-((6-(3-(2-ethoxyphenoxy)piperidin-1-yl)pyrazin-2-yl)amino)pyrimidin-2-yl)phenoxy)-2-methylpropanoic Acid]
2100 | CCOc1ccccc1O[C@@H]1CCCN(c2cncc(Nc3nccc(N4CCC[C@@H](CCC(=O)O)C4)n3)n2)C1 [Example 130, 3-((S)-1-(2-((6-((R)-3-(2-ethoxyphenoxy)piperidin-1-yl)pyrazin-2-yl)amino)pyrimidin-4-yl)piperidin-3-yl)propanoic Acid]

Continued, molecule first:

Molecule | IC50 [nM]
CCOc1ccccc1O[C@@H]1CCCN(c2cncc(Nc3nccc(N4CCC(C(=O)O)CC4)n3)n2)C1 [Example 123, (R)-1-(2-((6-(3-(2-ethoxyphenoxy)piperidin-1-yl)pyrazin-2-yl)amino)pyrimidin-4-yl)piperidine-4-carboxylic Acid] | 5500
CCOc1cccnc1O[C@@H]1CCCN(c2cncc(Nc3nccc(Oc4ccc(CC(=O)O)cc4)n3)n2)C1 [Example 163] | 860
CCOc1ccccc1O[C@@H]1CCCN(c2cncc(Nc3cccc(N4CCC[C@@H](C(=O)O)C4)n3)n2)C1 [Example 55, (R)-1-(6-((6-((R)-3-(2-ethoxyphenoxy)piperidin-1-yl)pyrazin-2-yl)amino)pyridin-2-yl)piperidine-3-carboxylic Acid] | 860
CCOc1cccnc1O[C@@H]1CCCN(c2cncc(Nc3cccc(-c4cccc(CC(C)(C)C(=O)O)c4)n3)n2)C1 [Example 64, (R)-3-(3-(6-((6-(3-((3-ethoxypyridin-2-yl)oxy)piperidin-1-yl)pyrazin-2-yl)amino)pyridin-2-yl)phenyl)-2,2-dimethylpropanoic Acid] | 130
CCOc1ccccc1O[C@@H]1CCCN(c2cncc(Nc3cc(-c4ccccc4)ccn3)n2)C1 [Example 41, (R)-6-(3-(2-ethoxyphenoxy)piperidin-1-yl)-N-(4-phenylpyridin-2-yl)pyrazin-2-amine] | 600
CCOc1ccccc1O[C@@H]1CCCN(c2cncc(Nc3cc(C(=O)O)ccn3)n2)C1 [Example 33, (R)-2-((6-(3-(2-ethoxyphenoxy)piperidin-1-yl)pyrazin-2-yl)amino)isonicotinic Acid] | > 10000
CCOc1ccccc1O[C@@H]1CCCN(c2cncc(Nc3ccn(CC(=O)O)n3)n2)C1 [Example 20, (R)-2-(3-((6-(3-(2-ethoxyphenoxy)piperidin-1-yl)pyrazin-2-yl)amino)-1H-pyrazol-1-yl)acetic Acid] | > 10000
CCOc1ccccc1O[C@@H]1CCCN(c2cncc(Nc3cccc(Oc4ccc(CC(=O)O)cc4)n3)n2)C1 [Example 97, (R)-2-(4-((6-((6-(3-(2-ethoxyphenoxy)piperidin-1-yl)pyrazin-2-yl)amino)pyridin-2-yl)oxy)phenyl)acetic Acid] | 900
CCOc1ccccc1O[C@@H]1CCCN(c2cncc(Nc3nccc(N4CCC[C@@H](CC(=O)O)C4)n3)n2)C1 [Example 128, 2-((S)-1-(2-((6-((R)-3-(2-ethoxyphenoxy)piperidin-1-yl)pyrazin-2-yl)amino)pyrimidin-4-yl)piperidin-3-yl)acetic Acid] | 160
CCOc1cccnc1O[C@@H]1CCCN(c2cncc(Nc3ccc(F)c(-c4cccc(OC(C)(C)C(=O)O)c4)n3)n2)C1 [Example 105, (R)-2-(3-(6-((6-(3-((3-ethoxypyridin-2-yl)oxy)piperidin-1-yl)pyrazin-2-yl)amino)-3-fluoropyridin-2-yl)phenoxy)-2-methylpropanoic Acid] | 500
CCOc1cccnc1O[C@@H]1CCCN(c2ccnc(Nc3nccc(-c4ccc(CC(C)(C)C(=O)O)cc4)n3)n2)C1 [Example 157, (R)-3-(4-(2-((4-(3-((3-ethoxypyridin-2-yl)oxy)piperidin-1-yl)pyrimidin-2-yl)amino)pyrimidin-4-yl)phenyl)-2,2-dimethylpropanoic Acid] | 720
